Test results reported in US20070129252A1, “2-Halo-6-alkylphenyl-substituted spirocyclic tetramic acid derivatives” (BAYER CROPSCIENCE AKTIENGESELLSCHAFT, priority 2003, published 2007).

What was measured:
Format in all cases: in vivo
Stellaria = test: Herbicidal pre-emergence action (Example L); conditions: greenhouse, 320 g of a.i./ha, 3 weeks
Excerpt: (§1) Herbicidal Pre-Emergence Action
(§2) Seeds of monocotyledonous and dicotyledonous weed and crop plants are placed into sandy loam in wood fibre pots and covered with soil. The test compounds, formulated in the form of wettable powders (WP), are then, in various dosages as aqueous suspension with a water application rate of 600 l/ha (converted), with 0.2% of wetting agent added, applied to the surface of the covering soil.
(§3) After the treatment, the pots are placed in a greenhouse and kept under good growth conditions for the test plants. The visual assessment of the emergence damage on the test plants is carried out after a trial period of 3 weeks by comparison with untreated controls (herbicidal effect in percent (%): 100% effect=the plants have died, 0% effect=like control plants).

Lolium [1] = test: Herbicidal pre-emergence action (Example L); conditions: greenhouse, 320 g of a.i./ha, 3 weeks
Excerpt: as §1, §2, §3

Setaria [2] = test: Herbicidal pre-emergence action (Example L); conditions: greenhouse, 320 g of a.i./ha, 3 weeks
Excerpt: as §1, §2, §3

Sinapis = test: Herbicidal pre-emergence action (Example L); conditions: greenhouse, 320 g of a.i./ha, 3 weeks
Excerpt: as §1, §2, §3

Avena sativa [3] = test: Herbicidal pre-emergence action (Example L); conditions: greenhouse, 320 g of a.i./ha, 3 weeks
Excerpt: as §1, §2, §3

Lolium [4] = test: Herbicidal post-emergence action (Example M); conditions: greenhouse, 320 g of a.i./ha, about 3 weeks
Description: (§4) Herbicidal Post-Emergence Action
(§5) Seeds of monocotyledonous and dicotyledonous weed and crop plants are placed into sandy loam in wood fibre pots, covered with soil and cultivated in a greenhouse under good growth conditions. 2-3 weeks after sowing, the test plants are treated at the one-leaf stage. The test compounds, formulated as wettable powders (WP), are, in various dosages with a water application rate of 600 l/ha (converted), with 0.2% of wetting agent added, sprayed onto the green parts of the plants. After the test plants were kept in the greenhouse under optimum growth conditions for about 3 weeks, the effect of the preparations is rated visually in comparison to untreated controls (herbicidal effect in percent (%): 100% effect=the plants have died, 0% effect=like control plants).

Setaria [5] = test: Herbicidal post-emergence action (Example M); conditions: greenhouse, 320 g of a.i./ha, about 3 weeks
Description: as §4, §5

Avena sativa [6] = test: Herbicidal post-emergence action (Example M); conditions: greenhouse, 320 g of a.i./ha, about 3 weeks
Description: as §4, §5

Myzus persicae [7] = test: Myzus test (spray treatment); conditions: 100 g/ha, Chinese cabbage discs
Description: Myzus Test (Spray Treatment)
(§6) To produce a suitable preparation of active compound, 1 part by weight of active compound is mixed with the stated amounts of solvent and emulsifier, and the concentrate is diluted with emulsifier-containing water to the desired concentration.
Discs of Chinese cabbage (Brassica pekinensis), which are infested by all stages of the green peach aphid (Myzus persicae), are sprayed with a preparation of active compound of the desired concentration.
After the desired period of time, the effect in % is determined. 100% means that all aphids have been killed; 0% means that none of the aphids have been killed.

Myzus persicae [8] = test: Myzus test (dip treatment); conditions: cabbage leaves
Description: Myzus Test (Dip Treatment)
as §6
Cabbage leaves (Brassica oleracea), which are heavily infested by the green peach aphid Myzus persicae), are treated by being dipped into the preparation of active compound of the desired concentration.
(§7) After the desired period of time, the kill in % is determined. 100% means that all aphids have been killed; 0% means that none of the aphids have been killed.

Meloidogyne incognita = test: Meloidogyne test; conditions: 20 ppm; formation of galls on lettuce roots
Description: To produce a suitable preparation of active compound, 1 part by weight of active compound is mixed with the stated amounts of solvent and emulsifier, and the concentrate is diluted with water to the desired concentration.
Vessels are filled with sand, solution of active compound, Meloidogyne incognita egg/larvae suspension and lettuce seeds. The lettuce seeds germinate and the plants develop. On the roots, galls develop.
After the desired period of time, the nematicidal action is determined in % by the formation of galls. 100% means that no galls have been found; 0% means that the number of galls on the treated plants corresponds to that of the untreated control.

Echinochloa [9] = test: Post-emergence test (Example J); conditions: greenhouse, 60 g of a.i./ha, after three weeks
Description: (§8) To produce a suitable preparation of active compound, 1 part by weight of active compound is mixed with the stated amount of solvent, the stated amount of emulsifier is added and the concentrate is diluted with water to the desired concentration.
(§9) Test plants of a height of 5-15 cm are sprayed with the preparation of active compound such that the particular amounts of active compound desired are applied per unit area. The concentration of the spray liquor is chosen such that the particular amounts of active compound desired are applied in 1000 l of water/ha.
(§10) After three weeks, the degree of damage in the plants is rated in % damage in comparison to the development of the untreated control.
(§11) 0%=no effect (like untreated control)

Lolium [10] = test: Post-emergence test (Example J); conditions: greenhouse, 60 g of a.i./ha, after three weeks
Description: as §8, §9, §10, §11

sugarbeets [11] = test: Post-emergence test (Example J); conditions: greenhouse, 60 g of a.i./ha, after three weeks
Description: as §8, §9, §10, §11

Tetranychus urticae = test: Tetranychus test (OP-resistant/dip treatment); conditions: 100 ppm; dip treatment; bean plants (Table H)
Description: Tetranychus Test (OP-Resistant/Dip Treatment)
as §6
Bean plants (Phaseolus vulgaris), which are heavily infested by all stages of the greenhouse red spider mite (Tetranychus urticae), are dipped into a preparation of active compound of the desired concentration.
After the desired period of time, the activity in % is determined. 100% means that all spider mites have been killed; 0% means that none of the spider mites have been killed.

Echinochloa [12] = test: Pre-emergence test (Example K); conditions: greenhouse, 30 g of a.i./ha, after three weeks
Description: as §8
(§12) Seeds of the test plants are sown in normal soil. After about 24 hours, the soil is sprayed with the preparation of active compound such that the particular amounts of active compound desired are applied per unit area. The concentration of the spray liquor is chosen such that the particular amounts of active compound desired are applied in 1000 l of water/ha.
(§13) After three weeks, the degree of damage to the plants is rated in % damage in comparison to the development of the untreated control.
as §11

Lolium [13] = test: Pre-emergence test (Example K); conditions: greenhouse, 30 g of a.i./ha, after three weeks
Description: as §8, §12, §13, §11

Setaria [14] = test: Pre-emergence test (Example K); conditions: greenhouse, 30 g of a.i./ha, after three weeks
Description: as §8, §12, §13, §11

sugarbeets [15] = test: Pre-emergence test (Example K); conditions: greenhouse, 30 g of a.i./ha, after three weeks
Description: as §8, §12, §13, §11

summer barley = test: Herbicidal post-emergence action, vessel trials with cereals in the greenhouse, use of safeners (Example N); conditions: without safener
Description: as §4
(§14) Seeds of monocotyledonous and dicotyledonous weed and crop plants are placed into sandy loam in wood fibre pots or in plastic pots, covered with soil and cultivated in a greenhouse, during the vegetation period also outdoors outside of the greenhouse, under good growth conditions. 2-3 weeks after sowing, the test plants are treated at the one- to three-leaf stage. The test compounds, formulated as wettable powders (WP) or emulsifiable concentrates (EC) are, in various dosages with a water application rate of 300 l/ha (converted), with wetting agent (0.2 to 0.3%) added, sprayed onto the plants and the surface of the soil. 3-4 weeks after the treatment of the test plants, the effect of the preparations is rated visually in comparison to untreated controls (herbicidal effect in percent (%): 100% effect=the plants have died, 0% effect=like control plants).
(§15) If it is additionally to be tested as to whether safeners can improve the plant compatibility of test substances in the case of crop plants, the following options are used for applying the safener: • seeds of the crop plants are, before sowing, dressed with the safener substance (the amount of safener is stated in percent, based on the weight of the seed) • before the application of the test substances, the crop plants are sprayed with the safener at a certain application rate per hectare (usually 1 day before the application of the test substances) • the safener is applied together with the test substance as a tank mix (the amount of safener is stated in g/ha or as a ratio, based on the herbicide).
(§16) By comparing the effect of the test substances on crop plants without or with safener treatment, it is possible to assess the effect of the safener substance.
(§17) Vessel Trials with Cereals in the Greenhouse
(§18) Mefenpyr applied 1 day prior to the application of herbicide

summer wheat = test: as above; conditions: without safener
Description: as §4, §14, §15, §16, §17, §18

Aphis gossypii = Aphis gossypii test; conditions: 500 ppm; dip treatment; cotton leaves
Description: as §6
Cotton leaves (Gossypium hirsutum), which are heavily infested by the cotton aphid (Aphis gossypii), are treated by being dipped into the preparation of active compound of the desired concentration.
as §7

Phaedon cochleariae = test: Phaedon larvae test (dip treatment); conditions: 500 ppm, cabbage leaves
Description: Phaedon Larvae Test (Dip Treatment) [[[…]]] To produce a suitable preparation of active compound, 1 part by weight of active compound is mixed with the stated amounts of solvent and emulsifier, and the concentrate is diluted with emulsifier-containing water to the desired concentration. Cabbage leaves (Brassica oleracea) are treated by being dipped into the preparation of active compound of the desired concentration and are populated with larvae of the mustard beetle (Phaedon cochleariae) while the leaves are still moist.

CCc1cc(C)cc(Br)c1C1=C(O)C2(CCOCC2)NC1=O [Example I-a-1]
herbicidal effect in percent, Stellaria (Stellaria): 100%
herbicidal effect in percent, Lolium (Lolium [1]): 80%
herbicidal effect in percent, Setaria (Setaria [2]): 90%
herbicidal effect in percent, Sinapis (Sinapis): 70%
herbicidal effect in percent, Avena sativa (Avena sativa [3]): 70%
herbicidal effect in percent, Lolium (Lolium [4]): 100%
herbicidal effect in percent, Setaria (Setaria [5]): 80%
herbicidal effect in percent, Avena sativa (Avena sativa [6]): 100%
Kill rate in % after 5d (Myzus persicae [7]): 100%
Kill rate in % after 6d (Myzus persicae [8]; 100 ppm): 75%
Effect in % after 14d (Meloidogyne incognita): 80%

CCc1cc(C)cc(Cl)c1C1=C(O)C2(CCC(OC)CC2)NC1=O (single isomer, unassigned) [Example I-a-4]
% damage, Echinochloa (Echinochloa [9]): 100%
% damage, Lolium (Lolium [10]): 100%
% damage, sugarbeets (sugarbeets [11]): 0%
Kill rate in % after 7d (Tetranychus urticae): 99%
% damage, Echinochloa (Echinochloa [12]): 80%
% damage, Lolium (Lolium [13]): 100%
% damage, Setaria (Setaria [14]): 100%
% damage, sugarbeets (sugarbeets [15]): 0%
summer barley observed (%) (summer barley; 12.5 g of a.i./ha): 10%
summer barley observed (%) (summer barley; 25 g of a.i./ha): 30%
summer barley observed (%) (summer barley; 50 g of a.i./ha): 97%
summer wheat observed (%) (summer wheat; 12.5 g of a.i./ha): 50%
summer wheat observed (%) (summer wheat; 25 g of a.i./ha): 98%
Kill rate in % after 6d (Myzus persicae [8]; 4 ppm): 95%
Kill rate in % after 6d (Aphis gossypii): 80%
Kill rate in % after 7d (Phaedon cochleariae): 100%
